Test results as given in US9371321B2, “Azaindole derivatives” (Takeda Pharmaceutical Company Limited, priority 2014, dated 2016).
≈ marks a conversion by molar mass, not a printed value.

Biological target: T1, PI3Kδ (recombinant GST-tagged PIK3CD co-expressed with PIK3R1, p85α) (Homo sapiens, UniProt O00329)
T1 construct: The protein is full length and co-expressed with untagged PIK3R1; GST; purchased Invitrogen PV5274
Assay: modified PIK3CD Adapta TR-FRET kinase assay (PI3Kδ inhibition)
Type: biochemical
Settings: 2 μM ATP, 50 μM PIP2, room temperature, 1 hour
Description: The activity of compounds as PI3Kδ inhibitors may be determined by a variety of methods, including in vitro and in vivo methods. The following in vitro assay measures a test compound's ability to inhibit PI3Kδ-mediated phosphorylation of PIP2 and ATP.
Recombinant GST-tagged PIK3CD is purchased from Invitrogen (Part Number: PV5274). The protein is full length and co-expressed with untagged PIK3R1, phosphoinositide-3-kinase regulatory subunit 1 (p85α). The protein is stored at −20° C. in 50 mM TRIS (pH 7.5), 150 mM NaCl, 0.5 mM EDTA, 0.02% Triton® X-100, 2 mM DTT, and 50% glycerol.
A modified PIK3CD Adapta® assay (Invitrogen, Carlsbad, Calif.) is used to measure PI3Kδ inhibition of the example compounds. The assay has two phases. In the first phase, kinase reaction components, which include the enzyme (PIK3CD), substrates (PIP2, ATP), test compound (inhibitor), and assay buffer are added to each well, and the reaction is allowed to incubate for a pre-determined period of time. After reaction, a detection solution composed of a Eu (europium)-labeled anti-ADP antibody, Alexa Fluor® 647-labeled ADP tracer, and EDTA (to stop the kinase reaction) is added to each assay well. In this second phase, ADP formed by the kinase reaction displaces the Alexa Fluor® 647-labeled ADP tracer from the antibody, resulting in a decrease in time-resolved fluorescence resonance energy transfer (TR-FRET) signal. In the presence of the inhibitor, the amount of ADP formed by the kinase reaction is reduced, and the resulting intact antibody-tracer interaction maintains a high TR-FRET signal.
The assay uses black Greiner® 384-well plates (784076). The reaction buffer contains 50 mM Hepes (pH 7.5), 3 mM MgCl2, 1 mM EGTA, 100 mM NaCl, 0.03% CHAPS; 2 mM DTT is added fresh prior to each experiment. Enzyme (4 μL, estimated 1.5 nM in buffer) is first added to the wells of the plate. Next, test compounds (2 μL) from a source plate (5% dilution plate) are introduced into the wells. The final DMSO concentration in each assay well is 1%. […] Other wells contain test compounds serially diluted across the plate 11 times for a total of 12 data points. The kinase reactions are carried out at room temperature and are initiated by the addition of 4 μL of solution containing 2 μM ATP and 50 μM PIP2. Each reaction is stopped after 1 hour±10 minutes via addition of […], which contains a final assay concentration of 3 nM Alexa Fluor® 647-labeled ADP tracer, 2 nM Eu-anti-ADP Antibody, and 10 mM EDTA. After allowing the solutions to equilibrate for 30±10 minutes, a PHERAstar plate reader is used to excite the Eu donor (at 337 nm) and to detect emission from the Alexa Fluor® 647 at 665 nm. This emission signal is referenced or “ratioed” to the emission from Eu at 620 nm. The emission ratio (665 nm/620 nm) from each well is collected and converted to percent conversion using a standard curve for the assay conditions: % conversion=B*(C+A−emission ratio)/(emission ratio−C), where “A” and “C” are the maximum and minimum values of the emission ratio obtained from the standard curve of emission ratio vs. % conversion (ATP-ADP); “B” is the emission ratio corresponding to the % conversion at the EC50 value for the ADP Tracer-Eu anti-ADP antibody complex. The percent inhibition for a given inhibitor concentration is computed from % conversion for the reaction and for the positive and negative controls. Corresponding IC50 values (molar concentration at 50% inhibition) are calculated by non-linear curve fitting of the compound concentrations and values of percent inhibition to the standard IC50 equation.

T1 sequence (O00329 whole entry): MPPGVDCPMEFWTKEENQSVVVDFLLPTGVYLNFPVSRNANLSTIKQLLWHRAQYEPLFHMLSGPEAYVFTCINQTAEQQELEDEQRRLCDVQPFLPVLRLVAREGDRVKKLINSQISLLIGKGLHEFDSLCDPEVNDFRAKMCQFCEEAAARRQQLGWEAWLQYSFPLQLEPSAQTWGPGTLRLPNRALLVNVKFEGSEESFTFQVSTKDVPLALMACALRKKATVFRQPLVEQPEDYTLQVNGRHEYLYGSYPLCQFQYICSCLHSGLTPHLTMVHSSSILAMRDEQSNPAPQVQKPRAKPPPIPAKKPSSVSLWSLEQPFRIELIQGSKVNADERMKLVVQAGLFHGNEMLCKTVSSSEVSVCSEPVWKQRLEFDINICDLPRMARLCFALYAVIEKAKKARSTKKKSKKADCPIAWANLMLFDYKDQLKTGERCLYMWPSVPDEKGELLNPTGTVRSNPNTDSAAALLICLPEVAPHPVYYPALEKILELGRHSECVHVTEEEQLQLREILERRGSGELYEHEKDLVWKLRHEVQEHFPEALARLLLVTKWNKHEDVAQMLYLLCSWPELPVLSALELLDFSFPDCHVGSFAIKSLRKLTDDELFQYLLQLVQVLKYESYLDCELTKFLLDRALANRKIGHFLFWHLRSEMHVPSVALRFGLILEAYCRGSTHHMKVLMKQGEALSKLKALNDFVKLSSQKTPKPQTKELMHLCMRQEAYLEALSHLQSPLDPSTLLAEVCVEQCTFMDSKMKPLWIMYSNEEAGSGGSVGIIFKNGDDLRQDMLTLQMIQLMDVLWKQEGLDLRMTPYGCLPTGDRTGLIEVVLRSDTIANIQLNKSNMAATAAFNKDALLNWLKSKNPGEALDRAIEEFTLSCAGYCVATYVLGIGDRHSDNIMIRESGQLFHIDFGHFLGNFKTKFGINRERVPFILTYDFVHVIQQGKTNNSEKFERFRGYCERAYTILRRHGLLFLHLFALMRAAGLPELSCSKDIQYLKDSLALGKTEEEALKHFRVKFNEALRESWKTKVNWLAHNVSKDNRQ
T1 sequence (P27986 whole entry partner): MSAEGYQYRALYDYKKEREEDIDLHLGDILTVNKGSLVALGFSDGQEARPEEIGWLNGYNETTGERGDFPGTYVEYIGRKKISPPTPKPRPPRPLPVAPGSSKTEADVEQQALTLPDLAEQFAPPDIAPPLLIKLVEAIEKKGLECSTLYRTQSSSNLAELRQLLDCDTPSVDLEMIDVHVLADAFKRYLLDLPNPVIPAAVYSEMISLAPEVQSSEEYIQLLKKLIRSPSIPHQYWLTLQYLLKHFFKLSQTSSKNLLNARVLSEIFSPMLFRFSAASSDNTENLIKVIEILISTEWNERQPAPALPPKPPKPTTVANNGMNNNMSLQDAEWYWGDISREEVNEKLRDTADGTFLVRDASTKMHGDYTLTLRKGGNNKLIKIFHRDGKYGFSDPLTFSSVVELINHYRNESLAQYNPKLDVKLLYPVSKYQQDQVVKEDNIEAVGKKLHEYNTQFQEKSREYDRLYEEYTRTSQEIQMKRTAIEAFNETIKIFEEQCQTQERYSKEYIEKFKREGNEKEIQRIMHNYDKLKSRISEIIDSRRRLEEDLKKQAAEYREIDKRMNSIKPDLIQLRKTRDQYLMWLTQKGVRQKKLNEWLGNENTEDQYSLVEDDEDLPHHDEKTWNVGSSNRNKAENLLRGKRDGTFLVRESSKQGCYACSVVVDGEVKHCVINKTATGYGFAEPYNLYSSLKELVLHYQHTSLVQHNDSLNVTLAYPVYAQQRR

Compared with “4-((S)-1-(6-((1S,4S)-2,5-Diazabicyclo[2.2.1]heptan-2-yl)-1-methyl-1H-pyrrolo[3,2-b]pyridin-5-yl)ethylamino)-2-amino-6-methylpyrimidine-5-carbonitrile [Example 14]”, `Cc1nc(N)nc(N[C@@H](C)c2nc3ccn(C)c3cc2C2CCC(N)CC2)c1C#N` (mixture of isomers) [Example 18, (S)-2-Amino-4-((1-(6-(4-aminocyclohexyl)-1-methyl-1H-pyrrolo[3,2-b]pyridin-5-yl)ethyl)amino)-6-methylpyrimidine-5-carbonitrile] is 2.8-fold higher in IC50: 0.6 nM for the first, 1.7 nM for the second.

Going from `Cc1nc(N)nc(N[C@@H](C)c2nc3ccn(C)c3cc2N2CCC[C@@H](N)C2)c1C#N` (single isomer, unassigned) [Example 4] to `Cc1nc(N)nc(N[C@@H](C)c2nc3ccn(C)c3cc2N2CCC[C@H](N)C2)c1C#N` (single isomer, unassigned) [Example 5], the IC50 rises from 2.9 nM to 5.4 nM (1.9-fold).

Compared with `Cc1nc(N)nc(N[C@@H](C)c2nc3ccn(C)c3cc2N2CC[C@@H](N)C2)c1C#N` (single isomer, unassigned) [Example 7], `Cc1nc(N)nc(N[C@@H](C)c2nc3ccn(C)c3cc2N2CC[C@H](N)C2)c1C#N` (single isomer, unassigned) [Example 8] is 1.6-fold lower in IC50: 4.2 nM for the first, 2.6 nM for the second.

Going from `Cc1nc(N)nc(N[C@@H](C)c2nc3ccn(C)c3cc2[C@@H]2CCNC2)c1C#N` (single isomer, unassigned) [Example 10] to `Cc1nc(N)nc(N[C@@H](C)c2nc3ccn(C)c3cc2[C@H]2CCNC2)c1C#N` (single isomer, unassigned) [Example 11], the IC50 falls from 3.5 nM to 1.3 nM (2.7-fold).

`Cc1nc(N)nc(N[C@@H](C)c2nc3ccn(C)c3cc2N2CCCNCC2)c1C#N` [Example 2, (S)-4-(1-(6-(1,4-Diazepan-1-yl)-1-methyl-1H-pyrrolo[3,2-b]pyridin-5-yl)ethylamino)-2-amino-6-methylpyrimidine-5-carbonitrile] and `CN[C@H]1CCN(c2cc3c(ccn3C)nc2[C@H](C)Nc2nc(N)nc(C)c2C#N)C1` [Example 3, 2-Amino-4-methyl-6-((S)-1-(1-methyl-6-((S)-3-(methylamino)pyrrolidin-1-yl)-1H-pyrrolo[3,2-b]pyridin-5-yl)ethylamino)pyrimidine-5-carbonitrile] are within 1.5-fold of each other in IC50: 5 nM for the first, 5.6 nM for the second.

First: Cc1nc(N)nc(N[C@@H](C)c2nc3ccn(C)c3cc2N2CCN[C@@H](C)C2)c1C#N [Example 6, 2-Amino-4-methyl-6-((S)-1-(1-methyl-6-((S)-3-methylpiperazin-1-yl)-1H-pyrrolo[3,2-b]pyridin-5-yl)ethylamino)pyrimidine-5-carbonitrile]
Second: Cc1nc(N)nc(N[C@@H](C)c2nc3ccn(C)c3cc2N2CCN[C@H](C)C2)c1C#N [Example 9, 2-Amino-4-methyl-6-((S)-1-(1-methyl-6-((R)-3-methylpiperazin-1-yl)-1H-pyrrolo[3,2-b]pyridin-5-yl)ethylamino)pyrimidine-5-carbonitrile]
The IC50 of the first is 2.3-fold higher: 5 nM for the first, 2.2 nM for the second.

`Cc1nc(N)nc(N[C@@H](C)c2nc3ccn(C)c3cc2C2CCNCC2)c1C#N` [Example 12, (S)-2-Amino-4-methyl-6-(1-(1-methyl-6-(piperidin-4-yl)-1H-pyrrolo[3,2-b]pyridin-5-yl)ethylamino)pyrimidine-5-carbonitrile] and `C[C@H](Nc1nc(N)nc(N)c1C#N)c1nc2ccn(C)c2cc1N1CCNCC1` [Example 13, (S)-2,4-Diamino-6-(1-(1-methyl-6-(piperazin-1-yl)-1H-pyrrolo[3,2-b]pyridin-5-yl)ethylamino)pyrimidine-5-carbonitrile] are within 1.5-fold of each other in IC50: 1.4 nM for the first, 1 nM for the second.

First: Cc1nc(N)nc(N[C@@H](C)c2nc3ccn(C)c3cc2NC2CCNCC2)c1C#N [Example 15, (S)-2-Amino-4-methyl-6-((1-(1-methyl-6-(piperidin-4-ylamino)-1H-pyrrolo[3,2-b]pyridin-5-yl)ethyl)amino)pyrimidine-5-carbonitrile]
Second: Cc1nc(N)nc(N[C@@H](C)c2nc3ccn(C)c3cc2N(C)C2CNC2)c1C#N [Example 16, (S)-2-Amino-4-((1-(6-(azetidin-3-yl(methyl)amino)-1-methyl-1H-pyrrolo[3,2-b]pyridin-5-yl)ethyl)amino)-6-methylpyrimidine-5-carbonitrile]
The IC50 of the first is 2.3-fold higher: 5.5 nM for the first, 2.4 nM for the second.

First: Cc1nc(N)nc(N[C@@H](C)c2nc3ccn(C)c3cc2C2=CCC(N)CC2)c1C#N (stereo partly drawn) [Example 17, 2-Amino-4-(((1S)-1-(6-(4-aminocyclohex-1-en-1-yl)-1-methyl-1H-pyrrolo[3,2-b]pyridin-5-yl)ethyl)amino)-6-methylpyrimidine-5-carbonitrile]
Second: CC[C@H](Nc1nc(N)nc(C)c1C#N)c1nc2ccn(C)c2cc1N1CCNCC1 [Example 19, (S)-2-Amino-4-methyl-6-((1-(1-methyl-6-(piperazin-1-yl)-1H-pyrrolo[3,2-b]pyridin-5-yl)propyl)amino)pyrimidine-5-carbonitrile]
The IC50 of the first is 11-fold higher: 8.5 nM for the first, 0.8 nM for the second. The second is the more potent here.

First: CCc1nc(N)nc(N[C@@H](C)c2nc3ccn(C)c3cc2N2CCNCC2)c1C#N [Example 20, (S)-2-Amino-4-ethyl-6-((1-(1-methyl-6-(piperazin-1-yl)-1H-pyrrolo[3,2-b]pyridin-5-yl)ethyl)amino)pyrimidine-5-carbonitrile]
Second: (S)-2-Amino-4-methyl-6-(1-(1-methyl-6-(piperazin-1-yl)-1H-pyrrolo[3,2-b]pyridin-5-yl)ethylamino)pyrimidine-5-carbonitrile [Example 1]
The IC50 of the first is 310-fold higher: 220 nM for the first, 0.7 nM for the second. The second is the more potent here.

Tested on: not given
Assay: not given
Settings: pH 6.8

With “4-((S)-1-(6-((1S,4S)-2,5-Diazabicyclo[2.2.1]heptan-2-yl)-1-methyl-1H-pyrrolo[3,2-b]pyridin-5-yl)ethylamino)-2-amino-6-methylpyrimidine-5-carbonitrile [Example 14]” the “Thermodynamic Solubility in JP2” value was over 1830 µg/mL.

Tested on: not listed separately
Assay: Thermodynamic solubility assay in JP2
Settings: JP2 (Japan Pharmacopoeia 2nd fluid for dissolution), 37 °C, pH 6.8, aqueous buffer, thermodynamic from solid
Description: Testing media for both assays are prepared as follows: • JP1 (Japan Pharmacopoeia 1st fluid for dissolution): In a 1 L volumetric flask, dissolve 2.0 g sodium chloride in about 500 mL deionized water. Add 84 mL of 1M hydrochloric acid and dilute to volume with deionized water. Mix thoroughly. • JP2 (Japan Pharmacopoeia 2nd fluid for dissolution): In a 1 L volumetric flask dissolve 6.806 g of anhydrous potassium phosphate monobasic in about 500 mL of deionized water. Add 23.6 mL of 1M sodium hydroxide and dilute to volume with deionized water. Mix thoroughly. • GCDC (20-mM sodium glycochenodeoxycholate in JP2): In a 50 mL volumetric flask, dissolve 0.475 g of sodium glycochenodeoxycholate with ˜30 mL JP2. Dilute to volume with additional JP2. Mix thoroughly. • Other pH buffers between pH 2-6 can also be prepared as additional testing media.
About 3 mg of compound is weighed into an HPLC vial. Testing medium (0.5 mL) is then added to the compound vial. The vial is sealed with a screw-on cap and placed in an incubator set at 37° C. with orbital shaking at 150 RPM for overnight equilibration. At the end of equilibration, the final pH is measured, and whether the compound is totally dissolved (clear solution) or not (solid in vial) is recorded. Then the sample mixture is transferred to a centrifuge tube with filter insert (0.45 μm nylon filter) and centrifuge filtered. The filtrate is diluted appropriately (2 to 50× dilution) before HPLC analysis. A calibration standard is prepared by dissolving ˜5 mg of compound in diluent and q.s. to volume in a 20 mL volumetric flask. A separate QC standard is prepared at about the same concentration. The default diluent is 1:1 acetonitrile/water. Alternative diluents such as 1:1 DMA/water and other mixtures may also be used depending on the solubility behavior of the compound. The calibration response factor is calculated by dividing the standard peak area with standard concentration. The sample solubility in a test medium is calculated by dividing the sample peak area with the corresponding standard response factor and multiplied by sample dilution factor. The response factor from QC standard is also calculated and compared with calibration standard. If the response factors of the calibration and QC standard differ by more than 5%, new calibration and QC standards should be prepared and samples are reanalyzed with new standards.

`C[C@H](Nc1nc(N)nc(N)c1C#N)c1nc2ccn(C)c2cc1C1CCOCC1` [A, reference compound] and `C[C@H](Nc1nc(N)nc(N)c1C#N)c1nc2ccn(C)c2cc1N1CCOCC1` [B, reference compound] are within 1.5-fold of each other in solubility thermodynamic: 20 µg/mL (≈ 51 µM) for the first, 26 µg/mL (≈ 66.1 µM) for the second.

Going from `Cc1nc(N)nc(N[C@@H](C)c2nc3ccn(C)c3cc2N2CCN[C@@H](C)C2)c1C#N` [Example 6, 2-Amino-4-methyl-6-((S)-1-(1-methyl-6-((S)-3-methylpiperazin-1-yl)-1H-pyrrolo[3,2-b]pyridin-5-yl)ethylamino)pyrimidine-5-carbonitrile] to `Cc1nc(N)nc(N[C@@H](C)c2nc3ccn(C)c3cc2C2CCNCC2)c1C#N` [Example 12, (S)-2-Amino-4-methyl-6-(1-(1-methyl-6-(piperidin-4-yl)-1H-pyrrolo[3,2-b]pyridin-5-yl)ethylamino)pyrimidine-5-carbonitrile], the solubility thermodynamic falls from 1730 µg/mL (≈ 4270 µM) to 150 µg/mL (≈ 384 µM) (12-fold).

Same assay, conditions: solid free base, JP2 (Japan Pharmacopoeia 2nd fluid), 37° C., overnight equilibration

With “(S)-2-Amino-4-methyl-6-(1-(1-methyl-6-(piperazin-1-yl)-1H-pyrrolo[3,2-b]pyridin-5-yl)ethylamino)pyrimidine-5-carbonitrile [Example 1]” the “Thermodynamic Solubility in JP2” value was 2195 µg/mL.
